In US9434743B2, “Indazole derivatives” (TAKEDA PHARMACEUTICAL COMPANY LIMITED, priority 2012, dated 2016):

Assays:
[1] = target: T1, human MetAP2 enzyme (Homo sapiens, UniProt P50579); assay: MetAP2 enzyme assay, enzyme complexed with cobalt ions; conditions: MetAP2 Co pIC50, MetAP2 enzyme complexed with cobalt ions; Met-AMC substrate at Km
[2] = target: T1, human MetAP2 enzyme; assay: MetAP2 enzyme assay, enzyme complexed with manganese ions; conditions: MetAP2 Mn pIC50, MetAP2 enzyme complexed with manganese ions; Met-AMC substrate at Km

T1 sequence (P50579 whole entry): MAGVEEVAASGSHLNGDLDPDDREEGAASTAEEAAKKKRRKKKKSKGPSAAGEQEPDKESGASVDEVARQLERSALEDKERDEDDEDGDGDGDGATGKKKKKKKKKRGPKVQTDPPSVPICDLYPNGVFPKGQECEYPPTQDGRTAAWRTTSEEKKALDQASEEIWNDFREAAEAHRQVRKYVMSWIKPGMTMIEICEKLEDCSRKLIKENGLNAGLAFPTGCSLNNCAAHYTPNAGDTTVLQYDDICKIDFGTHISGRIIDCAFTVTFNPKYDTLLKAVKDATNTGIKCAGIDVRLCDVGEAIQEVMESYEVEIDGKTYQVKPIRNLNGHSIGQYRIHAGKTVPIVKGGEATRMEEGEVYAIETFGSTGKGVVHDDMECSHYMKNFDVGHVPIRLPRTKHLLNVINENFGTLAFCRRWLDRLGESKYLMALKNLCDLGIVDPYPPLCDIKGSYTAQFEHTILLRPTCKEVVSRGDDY

IC50 [1] [nM]	IC50 [2] [nM]	SMILES
31.6	7.94	COc1ccc(CC(N)=O)cc1-c1cc(C(F)(F)F)cc2[nH]ncc12 [Example 350, 2-(4-methoxy-3-(6-(trifluoromethyl)-1H-indazol-4-yl)phenyl)acetamide]
39.8	12.6	NS(=O)(=O)c1ccc(-c2cc(C(F)(F)F)cc3[nH]ncc23)c(Cl)c1 [Example 351, 3-chloro-4-(6-(trifluoromethyl)-1H-indazol-4-yl)benzenesulfonamide]
39.8	20	Cc1nn(CC(=O)NC(C)C)c(C)c1-c1cc(C(F)(F)F)cc2[nH]ncc12 [Example 352, 2-(3,5-dimethyl-4-(6-(trifluoromethyl)-1H-indazol-4-yl)-1H-pyrazol-1-yl)-N-isopropylacetamide]
794	15.8	CN(C)C(=O)c1cc(-c2cc(C(F)(F)F)cc3[nH]ncc23)c(=O)n(C)c1 [Example 353, N,N,1-trimethyl-6-oxo-5-(6-(trifluoromethyl)-1H-indazol-4-yl)-1,6-dihydropyridine-3-carboxamide]
316	6.31	Cn1cc(C(=O)NCC#N)cc(-c2cc(C(F)(F)F)cc3[nH]ncc23)c1=O [Example 354, N-(cyanomethyl)-1-methyl-6-oxo-5-(6-(trifluoromethyl)-1H-indazol-4-yl)-1,6-dihydropyridine-3-carboxamide]
316	5.01	Cn1cc(C(=O)NCC(F)F)cc(-c2cc(C(F)(F)F)cc3[nH]ncc23)c1=O [Example 355, N-(2,2-difluoroethyl)-1-methyl-6-oxo-5-(6-(trifluoromethyl)-1H-indazol-4-yl)-1,6-dihydropyridine-3-carboxamide]
316	6.31	Cn1cc(C(=O)NCC(O)CO)cc(-c2cc(C(F)(F)F)cc3[nH]ncc23)c1=O (stereo not shown) [Example 356, N-(2,3-dihydroxypropyl)-1-methyl-6-oxo-5-(6-(trifluoromethyl)-1H-indazol-4-yl)-1,6-dihydropyridine-3-carboxamide]
200	7.94	Cn1cc(C(=O)NC2CC2)cc(-c2cc(C(F)(F)F)cc3[nH]ncc23)c1=O [Example 357, N-cyclopropyl-1-methyl-6-oxo-5-(6-(trifluoromethyl)-1H-indazol-4-yl)-1,6-dihydropyridine-3-carboxamide]
501	10	C[C@@H](O)CNC(=O)c1cc(-c2cc(C(F)(F)F)cc3[nH]ncc23)c(=O)n(C)c1 [Example 358, (R)—N-(2-hydroxypropyl)-1-methyl-6-oxo-5-(6-(trifluoromethyl)-1H-indazol-4-yl)-1,6-dihydropyridine-3-carboxamide]
501	10	C[C@H](O)CNC(=O)c1cc(-c2cc(C(F)(F)F)cc3[nH]ncc23)c(=O)n(C)c1 [Example 359, (S)—N-(2-hydroxypropyl)-1-methyl-6-oxo-5-(6-(trifluoromethyl)-1H-indazol-4-yl)-1,6-dihydropyridine-3-carboxamide]
39.8	7.94	O=C(NCCO)c1ccc(F)c(-c2cc(C(F)(F)F)cc3[nH]ncc23)c1 [Example 360, 4-fluoro-N-(2-hydroxyethyl)-3-(6-(trifluoromethyl)-1H-indazol-4-yl)benzamide]
15.8	10	Cc1cc(C(=O)N2CC(O)C2)ccc1-c1cc(C(F)(F)F)cc2[nH]ncc12 [Example 361, (3-hydroxyazetidin-1-yl)(3-methyl-4-(6-(trifluoromethyl)-1H-indazol-4-yl)phenyl)methanone]
39.8	15.8	COCCOc1ccc(-c2cc(C(F)(F)F)cc3[nH]ncc23)c(C)n1 [Example 362, 4-(6-(2-methoxyethoxy)-2-methylpyridin-3-yl)-6-(trifluoromethyl)-1H-indazole]
79.4	15.8	Cc1nn(CC(=O)N(C)C)c(C)c1-c1cc(C(F)(F)F)cc2[nH]ncc12 [Example 363, 2-(3,5-dimethyl-4-(6-(trifluoromethyl)-1H-indazol-4-yl)-1H-pyrazol-1-yl)-N,N-dimethylacetamide]
79.4	20	Cc1nn(C[C@@H]2CCC(=O)N2)c(C)c1-c1cc(C(F)(F)F)cc2[nH]ncc12 [Example 364, (5S)-5-((3,5-dimethyl-4-(6-(trifluoromethyl)-1H-indazol-4-yl)-1H-pyrazol-1-yl)methyl)pyrrolidin-2-one]
1580	79.4	CS(=O)(=O)c1ccccc1-c1cc(C(F)(F)F)cc2[nH]ncc12 [Example 365, 4-(2-(methylsulfonyl)phenyl)-6-(trifluoromethyl)-1H-indazole]
50.1	15.8	Cc1nn(CC(=O)N2CC(O)C2)c(C)c1-c1cc(C(F)(F)F)cc2[nH]ncc12 [Example 366, 2-(3,5-dimethyl-4-(6-(trifluoromethyl)-1H-indazol-4-yl)-1H-pyrazol-1-yl)-1-(3-hydroxyazetidin-1-yl)ethanone]
50.1	15.8	CNC(=O)Cn1nc(C)c(-c2cc(C(F)(F)F)cc3[nH]ncc23)c1C [Example 367, 2-(3,5-dimethyl-4-(6-(trifluoromethyl)-1H-indazol-4-yl)-1H-pyrazol-1-yl)-N-methylacetamide]

IC50 [1] [nM]	IC50 [2] [nM]	SMILES
31.6	12.6	Cc1ccc(C(=O)NCCO)cc1-c1cc(C(F)(F)F)cc2[nH]ncc12 [Example 368, N-(2-hydroxyethyl)-4-methyl-3-(6-(trifluoromethyl)-1H-indazol-4-yl)benzamide]
31.6	10	Cc1ccc(C(=O)N2CC(O)C2)cc1-c1cc(C(F)(F)F)cc2[nH]ncc12 [Example 369, (3-hydroxyazetidin-1-yl)(4-methyl-3-(6-(trifluoromethyl)-1H-indazol-4-yl)phenyl)methanone]
126	31.6	Cc1ccc(C(=O)N2CCC(O)C2)cc1-c1cc(C(F)(F)F)cc2[nH]ncc12 (stereo not shown) [Example 370, (3-hydroxypyrrolidin-1-yl)(4-methyl-3-(6-(trifluoromethyl)-1H-indazol-4-yl)phenyl)methanone]
50.1	15.8	Cc1ccc(C(=O)N2CCC(CO)C2)cc1-c1cc(C(F)(F)F)cc2[nH]ncc12 (stereo not shown) [Example 371, (3-(hydroxymethyl)pyrrolidin-1-yl)(4-methyl-3-(6-(trifluoromethyl)-1H-indazol-4-yl)phenyl)methanone]
100	31.6	Cc1ccc(C(=O)N2CCC(O)CC2)cc1-c1cc(C(F)(F)F)cc2[nH]ncc12 [Example 372, (4-hydroxypiperidin-1-yl)(4-methyl-3-(6-(trifluoromethyl)-1H-indazol-4-yl)phenyl)methanone]
126	6.31	Cn1cc(-c2cc(C(F)(F)F)cc3[nH]ncc23)ccc1=O [Example 373, 1-methyl-5-(6-(trifluoromethyl)-1H-indazol-4-yl)pyridin-2(1H)-one]
1580	63.1	O=C(O)Cn1cc(-c2cc(C(F)(F)F)cc3[nH]ncc23)ccc1=O [Example 374, 2-(2-oxo-5-(6-(trifluoromethyl)-1H-indazol-4-yl)pyridin-1(2H)-yl)acetic acid]
126	10	CN1CCN(C(=O)c2cc(-c3cc(C(F)(F)F)cc4[nH]ncc34)c(=O)n(C)c2)CC1 [Example 375, 1-methyl-5-(4-methylpiperazine-1-carbonyl)-3-(6-(trifluoromethyl)-1H-indazol-4-yl)pyridin-2(1H)-one]
50.1	5.01	NS(=O)(=O)c1cc(F)c(-c2cc(C(F)(F)F)cc3[nH]ncc23)cc1F [Example 376, 2,5-difluoro-4-(6-(trifluoromethyl)-1H-indazol-4-yl)benzenesulfonamide]
50.1	5.01	Cc1nc(C#N)ccc1-c1cc(C(F)(F)F)cc2[nH]ncc12 [Example 377, 6-methyl-5-(6-(trifluoromethyl)-1H-indazol-4-yl)picolinonitrile]
63.1	5.01	O=S(=O)(NCCO)c1ccc(-c2cc(C(F)(F)F)cc3[nH]ncc23)cn1 [Example 378, N-(2-hydroxyethyl)-5-(6-(trifluoromethyl)-1H-indazol-4-yl)pyridine-2-sulfonamide]
39.8	6.31	Cc1nc(C(N)=O)ccc1-c1cc(C(F)(F)F)cc2[nH]ncc12 [Example 379, 6-methyl-5-(6-(trifluoromethyl)-1H-indazol-4-yl)picolinamide]
398	25.1	Cc1nn(CC2(C)COC2)c(C)c1-c1cc(C(F)(F)F)cc2[nH]ncc12 [Example 380, 4-(3,5-dimethyl-1-((3-methyloxetan-3-yl)methyl)-1H-pyrazol-4-yl)-6-(trifluoromethyl)-1H-indazole]
39.8	6.31	Cc1c(-c2cc(C(F)(F)F)cc3[nH]ncc23)c(N)nn1C [Example 381, 1,5-dimethyl-4-(6-(trifluoromethyl)-1H-indazol-4-yl)-1H-pyrazol-3-amine]
12.6	6.31	Cc1nc2[nH]c(O)nc2cc1-c1cc(C(F)(F)F)cc2[nH]ncc12 [Example 382, 5-methyl-6-(6-(trifluoromethyl)-1H-indazol-4-yl)-3H-imidazo[4,5-b]pyridin-2-ol]
20	5.01	Cc1nc(-n2cnnc2)ccc1-c1cc(C(F)(F)F)cc2[nH]ncc12 [Example 383, 4-(2-methyl-6-(4H-1,2,4-triazol-4-yl)pyridin-3-yl)-6-(trifluoromethyl)-1H-indazole]
79.4	15.8	Cc1nc(N2CCCC2)ccc1-c1cc(C(F)(F)F)cc2[nH]ncc12 [Example 384, 4-(2-methyl-6-(pyrrolidin-1-yl)pyridin-3-yl)-6-(trifluoromethyl)-1H-indazole]
